Measurements published in patent publication US9388164B2, “Methods of using pyruvate kinase activators” (AGIOS PHARMACEUTICALS, INC, priority 2011, dated 2016).

Columns and labels:
Format in all cases: biochemical
[1] = biological target: T1, PKR R532W (Homo sapiens, UniProt P30613, R532W); experiment: PKR R532W Single Point Percent Activation Assay; conditions: compound at 1 μM; for activation at 1 µM: read-out: % Act. R532W
Procedure: PKR R532W Single Point Percent Activation Assay
(§1) A compound described herein was diluted with DMSO and tested at 1 μM concentration. The enzyme was diluted in 1× Buffer: (100 mM KCl, 50 mM Tris 7.5, 5 mM MgCl2, 1 mM DTT, 0.03% BSA). 2 μL of compound solution was first added into wells, and then 180 μL of enzyme solution was added. Assays were assembled except for ADP, and plates were stored for 60 minutes at RT. 20 μL ADP was added to start the assay and assay output was evaluated using OD340 at SpectraMax. The assay was run at room temperature.
PKR R532W (100 ng/well), Tris pH 7.5 (50 mM), KCl (100 mM), MgCl2 (5 mM), ADP (0.36 mM), PEP (0.1 mM), NADH (180 μM), LDH (0.5 units, Sigma 59023), DTT (1 mM) and BSA (0.03%).

[2] = biological target: T2, PKR T384W (Homo sapiens, UniProt P30613); experiment: PKR T384W Single Point Percent Activation Assay; conditions: compound at 1 μM
Procedure: PKR T384W Single Point Percent Activation Assay
as §1, with “180 μL enzyme solution” for “180 μL of enzyme solution”
PKR T384W soluble (300 ng/well), Tris pH 7.5 (50 mM), KCl (100 mM), MgCl2 (5 mM), ADP (0.08 mM), PEP (0.23 mM), NADH (180 μM), LDH (0.5 units, Sigma 59023), DTT (1 mM) and BSA (0.03%).

[3] = biological target: PKR wt (Homo sapiens, UniProt P30613); experiment: PKR WT Single Point Percent Activation Assay; conditions: compound at 1 μM
Procedure: PKR WT Single Point Percent Activation Assay
as §1
PKR wt (100 ng/well), Tris pH 7.5 (50 mM), KCl (100 mM), MgCl2 (5 mM), ADP (0.48 mM), PEP (0.15 mM), NADH (180 μM), LDH (0.5 units, Sigma 59023), DTT (1 mM) and BSA (0.03%).

[4] = biological target: T3, PKR R510Q (Homo sapiens, UniProt P30613, R510Q); experiment: PKR R510Q Single Point Percent Activation Assay; conditions: compound at 1 μM; for activation at 1 µM: read-out: % Act. R510Q
Procedure: PKR R510Q Single Point Percent Activation Assay
as §1
PKR R510Q (40 ng/well), Tris pH 7.5 (50 mM), KCl (100 mM), MgCl2 (5 mM), ADP (0.2 mM), PEP (0.11 mM), NADH (180 μM), LDH (0.5 units, Sigma 59023), DTT (1 mM) and BSA (0.03%).

[5] = biological target: wild type PKR (Homo sapiens, UniProt P30613); experiment: PKR assay, AC50 (wild type); conditions: read-out: PKR WT AC50
Procedure: (§2) • PKR or PKR mutant enzyme solution was diluted in assay buffer. • 2 μL of test compound was added into wells first, and then 180 μL reaction mix was added. • Reactions mixture with test compound was assembled except for ADP, and plates were stored for 60 minutes at room temperature. • 20 uL ADP was added to start reaction at room temperature and reaction progress was measured as changes in absorbance at 340 nm wavelength at room temperature.
(§3) Test Compound Preparation: • Test compound stock was made at 100× concentration in 100% DMSO (10 mM) • 1 to 3 dilutions were made for 11 points (i.e. 50 μl of first concentration added to 100 μl 100% DMSO to yield 3.33 mM, 50 μl of this added to 100 μl DMSO to yield 1.11 mM, and so forth) • 1 to 100 dilution into assay (2 μl in 200 μl) yielded starting concentration of 100 μM, decreasing 3 fold for 11 points.

[6] = biological target: T2, PKR T384W; experiment: PKR Mutant Assay, AC50 (T384W)
Procedure: as §2, §3

[7] = biological target: T3, PKR R510Q; experiment: PKR Mutant Assay, AC50 (R510Q)
Procedure: as §2, §3

[8] = biological target: T1, PKR R532W; experiment: PKR Mutant Assay, AC50 (R532W)
Procedure: as §2, §3

[9] = biological target: PKR G364D (Homo sapiens, UniProt P30613, G364D); experiment: PKR Mutant Assay, AC50 (G364D)
Procedure: as §2, §3

[10] = biological target: PKR R479H (Homo sapiens, UniProt P30613, R479H); experiment: PKR Mutant Assay, AC50 (R479H)
Procedure: as §2, §3

T3 sequence (P30613 whole entry R510Q): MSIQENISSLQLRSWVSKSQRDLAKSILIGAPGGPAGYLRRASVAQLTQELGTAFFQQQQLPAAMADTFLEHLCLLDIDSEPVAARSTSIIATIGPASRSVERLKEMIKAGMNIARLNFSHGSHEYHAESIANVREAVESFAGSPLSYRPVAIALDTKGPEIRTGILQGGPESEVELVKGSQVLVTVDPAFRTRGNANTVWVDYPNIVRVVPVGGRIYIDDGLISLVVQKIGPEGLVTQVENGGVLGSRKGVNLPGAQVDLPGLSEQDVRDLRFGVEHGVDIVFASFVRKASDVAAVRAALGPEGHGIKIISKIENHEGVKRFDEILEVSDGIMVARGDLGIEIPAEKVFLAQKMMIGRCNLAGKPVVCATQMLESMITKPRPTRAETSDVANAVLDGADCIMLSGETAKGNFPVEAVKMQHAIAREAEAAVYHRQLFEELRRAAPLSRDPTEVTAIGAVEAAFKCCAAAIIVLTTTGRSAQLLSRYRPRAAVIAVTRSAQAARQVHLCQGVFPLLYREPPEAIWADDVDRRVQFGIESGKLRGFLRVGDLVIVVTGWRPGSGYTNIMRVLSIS
T1 sequence (P30613 whole entry R532W): as the sequence (P30613 whole entry R510Q) above, with Q510R, R532W counted along it
T2 sequence (P30613 whole entry T384M): as the sequence (P30613 whole entry R510Q) above, with T384M, Q510R counted along it
wild type PKR, sequence (P30613 whole entry): as the sequence (P30613 whole entry R510Q) above, with Q510R counted along it
PKR wt, sequence (P30613 whole entry): as the sequence (P30613 whole entry R510Q) above, with Q510R counted along it
PKR G364D, sequence (P30613 whole entry G364D): as the sequence (P30613 whole entry R510Q) above, with G364D, Q510R counted along it
PKR R479H, sequence (P30613 whole entry R479H): as the sequence (P30613 whole entry R510Q) above, with R479H, Q510R counted along it

| activation at 1 µM [1] [%] | activation at 1 µM [3] [%] | activation at 1 µM [4] [%] | AC50 [5] [nM] | SMILES | % Act. T384W [2] | other results |
| --- | --- | --- | --- | --- | --- | --- |
| 101 to 500 | 101 to 500 | 101 to 500 |  | Cc1cc(C(=O)N2CC(C)(O)C2)ccc1NS(=O)(=O)c1cccc2cccnc12 | B (a % activation at 1 μM of from 101 to 500) |  |
| 101 to 500 | 101 to 500 | 101 to 500 |  | Cc1cc(C(=O)N2CC(Nc3ccccc3)C2)ccc1NS(=O)(=O)c1cccc2cccnc12 | B (a % activation at 1 μM of from 101 to 500) |  |
| 101 to 500 | 101 to 500 | 101 to 500 |  | CN(Cc1ccccc1)C1CN(C(=O)c2ccc(NS(=O)(=O)c3cccc4cccnc34)cc2)C1 | B (a % activation at 1 μM of from 101 to 500) |  |
| 101 to 500 | 101 to 500 | 101 to 500 | 101 to 500 | O=C(c1ccc(NS(=O)(=O)c2cccc3cccnc23)cc1)N1CC(Oc2ccccc2)C1 [drawing 4] | B (a % activation at 1 μM of from 101 to 500) |  |
| 101 to 500 | 101 to 500 | 101 to 500 | < 100 | O=C(c1ccc(NS(=O)(=O)c2cccc3cccnc23)cc1)N1CC(O)(Cc2ccccc2)C1 [drawing 5] | B (a % activation at 1 μM of from 101 to 500) |  |
| 1 to 100 | 101 to 500 | 101 to 500 | 101 to 500 | Cc1cc(C(=O)N2CC(NC(=O)c3ccccn3)C2)ccc1NS(=O)(=O)c1cccc2cccnc12 [drawing 7] | B (a % activation at 1 μM of from 101 to 500) |  |
|  | 101 to 500 | 101 to 500 |  | O=C(NC1CN(C(=O)c2ccc(NS(=O)(=O)c3cccc4cccnc34)cc2)C1)c1ccccn1 [drawing 8] | B (a % activation at 1 μM of from 101 to 500) | % Act. R532W [1]: A (a % activation at 1 μM of from 1 to 100) |
| 1 to 100 | 1 to 100 | 101 to 500 | < 100 | Cc1cc(C(=O)N2CC(Oc3ccccc3)C2)ccc1NS(=O)(=O)c1cccc2cccnc12 [drawing 10] | A (a % activation at 1 μM of from 1 to 100) |  |
| 101 to 500 | 101 to 500 | 101 to 500 | 101 to 500 | O=C(c1ccc(NS(=O)(=O)c2cccc3cccnc23)cc1)N1CC(OCc2ccccc2)C1 [drawing 12] | B (a % activation at 1 μM of from 101 to 500) |  |
|  |  |  | > 500 | O=C(NC1CN(C(=O)c2ccc(NS(=O)(=O)c3cccc4cccnc34)cc2)C1)c1ccccn1 [drawing 15] | B (a % activation at 1 μM of from 101 to 500) | % Act. R532W [1]: B (a % activation at 1 μM of from 101 to 500); Act. % WT [3]: B (a % activation at 1 μM of from 101 to 500); % Act. R510Q [4]: B (a % activation at 1 μM of from 101 to 500) |
|  | 101 to 500 | 101 to 500 |  | COc1ccccc1N(C)C1CN(C(=O)c2ccc(NS(=O)(=O)c3cccc4cccnc34)cc2)C1 [drawing 21] | A (a % activation at 1 μM of from 1 to 100) | % Act. R532W [1]: B (a % activation at 1 μM of from 101 to 500) |
| 101 to 500 | 101 to 500 | 101 to 500 | > 500 | O=C(c1ccc(NS(=O)(=O)c2cccc3cccnc23)c(F)c1)N1CC(Nc2ccccc2)C1 [drawing 22] | B (a % activation at 1 μM of from 101 to 500) |  |
|  |  |  |  | COc1ccccc1N(C)C1CN(C(=O)c2ccc(NS(=O)(=O)c3cccc4cccnc34)cc2)C1 [drawing 32] | B (a % activation at 1 μM of from 101 to 500) | % Act. R532W [1]: A (a % activation at 1 μM of from 1 to 100); Act. % WT [3]: B (a % activation at 1 μM of from 101 to 500); % Act. R510Q [4]: B (a % activation at 1 μM of from 101 to 500) |
| 101 to 500 | 101 to 500 | 101 to 500 | 101 to 500 | O=C(c1ccc(NS(=O)(=O)c2cccc3cccnc23)cc1)N1CC(O)(c2ccccc2)C1 [drawing 40] | B (a % activation at 1 μM of from 101 to 500) |  |
| 1 to 100 | 1 to 100 | 1 to 100 |  | Cc1cc(C(=O)N2CC(Nc3ccccn3)C2)ccc1NS(=O)(=O)c1cccc2cccnc12 [drawing 55] | B (a % activation at 1 μM of from 101 to 500) |  |
| 101 to 500 | 101 to 500 | 101 to 500 | < 100 | COc1ccccc1OC1CN(C(=O)c2ccc(NS(=O)(=O)c3cccc4cccnc34)c(C)c2)C1 [drawing 63] | A (a % activation at 1 μM of from 1 to 100) |  |
| 101 to 500 | 101 to 500 | 101 to 500 |  | O=C(Nc1ccccn1)OC1CN(C(=O)c2ccc(NS(=O)(=O)c3cccc4cccnc34)cc2)C1 [drawing 65] | B (a % activation at 1 μM of from 101 to 500) |  |
|  |  |  |  | O=C(c1ccc(NS(=O)(=O)c2cccc3cccnc23)cc1)N1CC(Oc2ccccc2)C1 [drawing 70] |  | AC50 [6]: 101 to 500 nM; AC50 [7]: > 500 nM; AC50 [8]: < 100 nM |
|  |  |  |  | O=C(c1ccc(NS(=O)(=O)c2cccc3cccnc23)cc1)N1CC(O)(Cc2ccccc2)C1 [drawing 71] |  | AC50 [9]: 101 to 500 nM; AC50 [10]: < 100 nM; AC50 [6]: < 100 nM; AC50 [7]: 101 to 500 nM; AC50 [8]: < 100 nM |
|  |  |  |  | Cc1cc(C(=O)N2CC(NC(=O)c3ccccn3)C2)ccc1NS(=O)(=O)c1cccc2cccnc12 [drawing 73] |  | AC50 [6]: 101 to 500 nM; AC50 [7]: > 500 nM; AC50 [8]: 101 to 500 nM |
|  |  |  |  | Cc1cc(C(=O)N2CC(Oc3ccccc3)C2)ccc1NS(=O)(=O)c1cccc2cccnc12 [drawing 76] |  | AC50 [6]: < 100 nM; AC50 [7]: 101 to 500 nM; AC50 [8]: < 100 nM |
|  |  |  |  | O=C(c1ccc(NS(=O)(=O)c2cccc3cccnc23)cc1)N1CC(OCc2ccccc2)C1 [drawing 78] |  | AC50 [6]: 101 to 500 nM; AC50 [8]: 101 to 500 nM |
|  |  |  |  | O=C(NC1CN(C(=O)c2ccc(NS(=O)(=O)c3cccc4cccnc34)cc2)C1)c1ccccn1 [drawing 81] |  | AC50 [6]: > 500 nM; AC50 [8]: > 500 nM |
|  |  |  |  | O=C(c1ccc(NS(=O)(=O)c2cccc3cccnc23)c(F)c1)N1CC(Nc2ccccc2)C1 [drawing 88] |  | AC50 [6]: > 500 nM; AC50 [7]: > 500 nM; AC50 [8]: > 500 nM |
|  |  |  |  | Cc1cc(C(=O)N2CC(Nc3ccccn3)C2)ccc1NS(=O)(=O)c1cccc2cccnc12 [drawing 121] |  | AC50 [7]: 101 to 500 nM |
|  |  |  |  | COc1ccccc1OC1CN(C(=O)c2ccc(NS(=O)(=O)c3cccc4cccnc34)c(C)c2)C1 [drawing 129] |  | AC50 [6]: < 100 nM; AC50 [7]: > 500 nM; AC50 [8]: < 100 nM |
|  |  |  |  | O=C(Nc1ccccn1)OC1CN(C(=O)c2ccc(NS(=O)(=O)c3cccc4cccnc34)cc2)C1 [drawing 131] |  | AC50 [7]: > 500 nM |
